Experimental findings from patent US8785460B2, “Tricyclic compounds and use thereof” (Takeda Pharmaceutical Company Limited, priority 2008, dated 2014) are described below.

The structures appear in SMILES notation.

The target in data set [1] is T1, human CRF1 receptor (Homo sapiens, UniProt P34998).
T1 construct: expressed in transfected cells; host or cells: CHO cells (membrane fraction)
T1 sequence (P34998 24-415): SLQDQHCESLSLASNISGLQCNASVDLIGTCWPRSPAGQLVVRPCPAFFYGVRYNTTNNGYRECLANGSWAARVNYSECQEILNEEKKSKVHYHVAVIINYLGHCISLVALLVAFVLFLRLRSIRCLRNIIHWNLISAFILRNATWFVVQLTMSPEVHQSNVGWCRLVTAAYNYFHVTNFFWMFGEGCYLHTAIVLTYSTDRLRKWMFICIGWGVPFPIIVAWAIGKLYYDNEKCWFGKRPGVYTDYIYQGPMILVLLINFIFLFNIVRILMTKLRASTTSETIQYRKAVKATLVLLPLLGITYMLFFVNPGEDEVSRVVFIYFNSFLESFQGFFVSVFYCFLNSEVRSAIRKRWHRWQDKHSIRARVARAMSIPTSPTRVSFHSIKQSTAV
Briefly: Measurement of CRF Binding Inhibitory Rate (receptor binding experiment with 125I-CRF). The following applies: human CRF1 receptor expressing CHO cellular membrane fraction, 50 pM 125I-CRF, room temperature 1.5 hr, 0.05 nM to 10 μM of compound; read-out: IC50 values (CRF binding inhibition).

As a reminder, the IC50 is the point on the concentration scale where inhibition reaches its midpoint. By melting point is commonly meant the temperature, or range, at which the solid turns liquid. `CCC(OC(=O)C1CC1)c1ccc(Cl)c2nc3n(c12)CCCN3c1ccc(Cl)cc1Cl` (stereo not shown) [Example 431, 1-[9-Chloro-1-(2,4-dichlorophenyl)-1,2,3,4-tetrahydropyrimido[1,2-a]benzimidazol-6-yl]propyl cyclopropanecarboxylate] gave a melting point of 159 to 161 °C. For the same compound, in data set [1], the concentration for half-maximal inhibition (IC50) was < 1000 nM.

For `CCC(CC)c1ccc(Cl)c2nc3n(c12)CCCCN3c1ccc(C(F)(F)F)cc1Br` [Example 38, 1-[2-Bromo-4-(trifluoromethyl)phenyl]-10-chloro-7-(1-ethylpropyl)-2,3,4,5-tetrahydro-1H-[1,3]diazepino[1,2-a]benzimidazole], the melting point was in the range of 158 to 160 °C. Besides, the 50% inhibitory concentration (IC50) in data set [1] was < 1000 nM.

Turning to `Clc1ccc(N2CCCn3c2nc2c(Cl)ccc(N(C4CC4)C4CC4)c23)c(Cl)c1` [Example 320, 9-Chloro-N,N-dicyclopropyl-1-(2,4-dichlorophenyl)-1,2,3,4-tetrahydropyrimido[1,2-a]benzimidazol-6-amine], the melting point was 211 to 213 °C. Further, the IC50 in data set [1] was < 1000 nM.

As to `CCC(CC)c1ccc(Cl)c2nc3n(c12)CCCCN3c1c(C)cc(Cl)cc1OC` [Example 56], the melting point is 196 to 198 °C. Further, in data set [1], the 50% inhibitory concentration (IC50) was < 1000 nM.

In turn, `CCC(CC)c1ccc(Cl)c2nc3n(c12)CCCCN3c1ncc(Cl)cc1Cl` [Example 62, 10-Chloro-1-(3,5-dichloropyridin-2-yl)-7-(1-ethylpropyl)-2,3,4,5-tetrahydro-1H-[1,3]diazepino[1,2-a]benzimidazole] returned a melting point of 175 to 176 °C. Besides, in data set [1], the IC50 is < 1000 nM.

As to `CCC(CC)c1ccc(Cl)c2nc3n(c12)CCN3c1ccc(Cl)cc1Cl` [Example 3, 8-Chloro-1-(2,4-dichlorophenyl)-5-(1-ethylpropyl)-2,3-dihydro-1H-imidazo[1,2-a]benzimidazole], the melting point was 171 to 173 °C. Moreover, the half-inhibitory concentration (IC50) in data set [1] was < 1000 nM.

`CCC(CC)c1ccc(Cl)c2nc3n(c12)CCCCN3c1ccc([S+](C)[O-])cc1C` (stereo not shown) [Example 45, 10-Chloro-7-(1-ethylpropyl)-1-[2-methyl-4-(methylsulfinyl)phenyl]-2,3,4,5-tetrahydro-1H-[1,3]diazepino[1,2-a]benzimidazole] registered a melting point of 189 to 190 °C. Also, the IC50 in data set [1] is < 1000 nM.

In turn, `CCC(CCO)c1ccc(Cl)c2nc3n(c12)CCCN3c1ccc(Cl)cc1Cl` (stereo not shown) [Example 450, 3-[9-Chloro-1-(2,4-dichlorophenyl)-1,2,3,4-tetrahydropyrimido[1,2-a]benzimidazol-6-yl]pentan-1-ol] showed a melting point of 183 to 185 °C. Moreover, in data set [1], the IC50 is < 1000 nM.

`CCNC(CC)c1ccc(Cl)c2nc3n(c12)CCCN3c1ccc(Cl)cc1Cl` (stereo not shown) [Example 458, 1-[9-Chloro-1-(2,4-dichlorophenyl)-1,2,3,4-tetrahydropyrimido[1,2-a]benzimidazol-6-yl]-N-ethylpropan-1-amine] gave a melting point of 124 to 127 °C. In data set [1], the 50% inhibitory concentration (IC50) is < 1000 nM.

`CCO/N=C(/CC)c1ccc(Cl)c2nc3n(c12)CCCN3c1ccc(Cl)cc1Cl` [Example 124, (1Z)-1-[9-Chloro-1-(2,4-dichlorophenyl)-1,2,3,4-tetrahydropyrimido[1,2-a]benzimidazol-6-yl]propan-1-one O-ethyloxime] returned a melting point of 140 to 141 °C. Further, the concentration for half-maximal inhibition (IC50) in data set [1] was < 1000 nM.

In turn, `CCC(CC)c1ccc(Cl)c2nc3n(c12)CCCCN3c1ccc(S(C)(=O)=O)cc1C` [Example 46, 10-Chloro-7-(1-ethylpropyl)-1-[2-methyl-4-(methylsulfonyl)phenyl]-2,3,4,5-tetrahydro-1H-[1,3]diazepino[1,2-a]benzimidazole] yielded a melting point of 170 to 171 °C. Also, the concentration for half-maximal inhibition (IC50) in data set [1] is < 1000 nM.

With `CCC(CC)c1ccc(Cl)c2nc3n(c12)CCCCN3c1ncc([N+](=O)[O-])cc1C` [Example 64, 10-Chloro-7-(1-ethylpropyl)-1-(3-methyl-5-nitropyridin-2-yl)-2,3,4,5-tetrahydro-1H-[1,3]diazepino[1,2-a]benzimidazole], the melting point lay in the range of 204 to 205 °C. Further, the concentration for half-maximal inhibition (IC50) in data set [1] is < 1000 nM.

In turn, `CCC(O)c1ccc(Cl)c2nc3n(c12)CCCN3c1ccc(Cl)cc1C(F)(F)F` (stereo not shown) [Example 131, 1-{9-Chloro-1-[4-chloro-2-(trifluoromethyl)phenyl]-1,2,3,4-tetrahydropyrimido[1,2-a]benzimidazol-6-yl}propan-1-ol] gave a melting point of 220 to 222 °C. The IC50 in data set [1] is < 1000 nM.

As to `CCC(OCC(F)(F)F)c1ccc(Cl)c2nc3n(c12)CCCN3c1ccc(N(C)C)nc1C` (stereo not shown) [Example 167, 5-{9-Chloro-6-[1-(2,2,2-trifluoroethoxy)propyl]-3,4-dihydropyrimido[1,2-a]benzimidazol-1(2H)-yl}-N,N,6-trimethylpyridin-2-amine], the melting point is 144 to 146 °C. The IC50 in data set [1] was < 1000 nM.

`CCC(CC)c1ccc(Cl)c2nc3n(c12)CCCCN3c1ncc(S(C)(=O)=O)cc1C` [Example 341, 10-Chloro-7-(1-ethylpropyl)-1-[3-methyl-5-(methylsulfonyl)pyridin-2-yl]-2,3,4,5-tetrahydro-1H-[1,3]diazepino[1,2-a]benzimidazole] had a melting point of 137 to 139 °C. Also, the IC50 in data set [1] was < 1000 nM.

`CCC(CC(C)=O)c1ccc(Cl)c2nc3n(c12)CCCN3c1ccc(Cl)cc1Cl` (stereo not shown) [Example 452, 4-[9-Chloro-1-(2,4-dichlorophenyl)-1,2,3,4-tetrahydropyrimido[1,2-a]benzimidazol-6-yl]hexan-2-one] displayed a melting point of 195 to 197 °C. In data set [1], the IC50 was < 1000 nM.

With `CCC(CC)c1ccc(Cl)c2nc3n(c12)CCCCN3c1ccc(OC(F)(F)F)cc1Br` [Example 39, 1-[2-Bromo-4-(trifluoromethoxy)phenyl]-10-chloro-7-(1-ethylpropyl)-2,3,4,5-tetrahydro-1H-[1,3]diazepino[1,2-a]benzimidazole], the melting point fell in the range of 114 to 117 °C. Further, the IC50 in data set [1] was < 1000 nM.

In the case of `CC(=O)OC(c1ccc(Cl)c2nc3n(c12)CCCN3c1ccc(Cl)cc1Cl)C1CC1` (stereo not shown) [Example 244, [9-Chloro-1-(2,4-dichlorophenyl)-1,2,3,4-tetrahydropyrimido[1,2-a]benzimidazol-6-yl](cyclopropyl)methyl acetate], the melting point lay within 208 to 210 °C. In addition, in data set [1], the IC50 was < 1000 nM.

Take `COC(c1cccc2nc3n(c12)CCCN3c1ccc(Cl)cc1Cl)C(F)(F)F` (stereo not shown) [Example 202, 1-(2,4-Dichlorophenyl)-6-(2,2,2-trifluoro-1-methoxyethyl)-1,2,3,4-tetrahydropyrimido[1,2-a]benzimidazole]: the melting point was 164 to 165 °C. Besides, in data set [1], the IC50 is < 1000 nM.

The compound `COc1ccc(N2CCCn3c2nc2c(Cl)ccc(C(OCC(F)F)C4CC4)c23)c(C)n1` (stereo not shown) [Example 278, 9-Chloro-6-[cyclopropyl(2,2-difluoroethoxy)methyl]-1-(6-methoxy-2-methylpyridin-3-yl)-1,2,3,4-tetrahydropyrimido[1,2-a]benzimidazole] yielded a melting point of 124 to 126 °C. Further, in data set [1], the concentration for half-maximal inhibition (IC50) was < 1000 nM.
